15 molecules from ChEMBL document CHEMBL1123604 (J Med Chem, 1987) can be followed below.

Molecules are shown by their SMILES.

Assay [1] relates to Canis familiaris. Kind of assay: Change in heart rate(HR) in anesthetized dog. Format: functional, Canis lupus familiaris.
Assay [2] can be described thus: Inhibition of Guinea Pig cAMP specific phosphodiesterase (PDE III).
The test system of assay [3] is Canis familiaris. The experiment in a line: Change in mean arterial blood pressure(MAP) in anesthetized dog. It counts as functional, Canis lupus familiaris, Artery.
Assay [4] relates to Canis familiaris. Kind of assay: Myocardial contractility in anesthetized dog by intravenous dose. It counts as functional. The conditions noted are these: Canis lupus familiaris, Myocardium.
Assay [5] concerns Canis familiaris. The experiment in a line: Increased myocardial contractility (dP/dt max) in anesthetized dog at 2 mg/kg. Format: functional, Canis lupus familiaris, Myocardium.
Assay [6] can be described thus: Inhibition of Guinea Pig cAMP specific phosphodiesterase (PDE III). The source holds these as a separate data set.
Assay [7] concerns Canis familiaris. Kind of assay: Percent change of heart rate in anesthetized dog at 0.1 mg/kg. It counts as functional, Canis lupus familiaris.
In assay [8] the test system is Canis familiaris. The experiment in a line: Percent change of ventricular pressure in anesthetized dog at 0.1 mg/kg. Format: functional, Canis lupus familiaris, Cardiac ventricle.
Assay [9] has as its system Canis familiaris. The experiment in a line: Percent change in blood pressure in anesthetized dog at 0.01 mg/kg. It counts as functional, Canis lupus familiaris.
The test system of assay [10] is Canis familiaris. Kind of assay: Percent change in blood pressure in anesthetized dog at 1 mg/kg. It counts as functional, Canis lupus familiaris.
Assay [11] has as its system Canis familiaris. The experiment in a line: Increased myocardial contractility (dP/dt max) in anesthetized dog at 6 mg/kg. Format: functional, Canis lupus familiaris, Myocardium.
Assay [12] has as its system Canis familiaris. Kind of assay: Percent change of ventricular pressure in anesthetized dog at 0.31 mg/kg. It counts as functional, Canis lupus familiaris, Cardiac ventricle.
In assay [13] the test system is Canis familiaris. Kind of assay: Increased contractility (dP/dt max) in Conscious dog at peroral dose of 0.31 mg/kg. It counts as functional, Canis lupus familiaris. The conditions noted are these: route oral.
The subject of assay [14] is Canis familiaris. The experiment in a line: Percent change of ventricular pressure in anesthetized dog at 0.031 mg/kg. It counts as functional, Canis lupus familiaris, Cardiac ventricle.
Assay [15] relates to Canis familiaris. The experiment in a line: Percent change of heart rate in anesthetized dog at 1 mg/kg. Format: functional, Canis lupus familiaris.
Assay [16] concerns Canis familiaris. Kind of assay: Percent change of heart rate in anesthetized dog at 0.31 mg/kg. It counts as functional, Canis lupus familiaris.
Assay [17] has as its system Canis familiaris. Kind of assay: Percent change of heart rate in anesthetized dog at 0.031 mg/kg. Format: functional, Canis lupus familiaris.
The test system of assay [18] is Canis familiaris. Kind of assay: Percent change of ventricular pressure in anesthetized dog at 1 mg/kg. Format: functional, Canis lupus familiaris, Cardiac ventricle.
Assay [19] deals with Canis familiaris. Kind of assay: Percent change in blood pressure in anesthetized dog at 0.031 mg/kg. Format: functional, Canis lupus familiaris.
For assay [20], the system named is Canis familiaris. Kind of assay: Percent change of ventricular pressure in anesthetized dog at 0.01 mg/kg. Format: functional, Canis lupus familiaris, Cardiac ventricle.
For assay [21], the system named is Canis familiaris. The experiment in a line: Percent change of heart rate in anesthetized dog at 0.01 mg/kg. It counts as functional, Canis lupus familiaris.
Assay [22] concerns Canis familiaris. The experiment in a line: Percent change in blood pressure in anesthetized dog at 0.31 mg/kg. It counts as functional, Canis lupus familiaris.
Assay [23] concerns Canis familiaris. Kind of assay: Percent change in blood pressure in anesthetized dog at 0.1 mg/kg. It counts as functional, Canis lupus familiaris.
Assay [24] concerns Canis familiaris. Kind of assay: Increased myocardial contractility (dP/dt max) in conscious dog at 1 mg/kg peroral dose. The conditions noted are these: route oral. It counts as functional, Canis lupus familiaris, Myocardium.
Assay [25] deals with Canis familiaris. The experiment in a line: Increased myocardial contractility (dP/dt max) in anesthetized dog.
For assay [26], the system named is Canis familiaris. The experiment in a line: Increased myocardial contractility (dP/dt max) in conscious dog at 0.31 mg/kg peroral dose, range 10-20. It counts as functional, Canis lupus familiaris, Myocardium. Particulars: route oral.
Assay [27] relates to Canis familiaris. The experiment in a line: Percent change in heart rate in anesthetized dog at 0.031 mg/kg. It counts as functional, Canis lupus familiaris.
The test system of assay [28] is Canis familiaris. Kind of assay: Increased myocardial contractility (dP/dt max) in anesthetized dog at 8 mg/kg. Format: functional, Canis lupus familiaris, Myocardium.
The subject of assay [29] is Canis familiaris. Kind of assay: Percent change in ventricular pressure in anesthetized dog at 0.1 mg/kg. It counts as functional, Canis lupus familiaris, Cardiac ventricle.
The test system of assay [30] is Canis familiaris. Kind of assay: Percent change in ventricular pressure in anesthetized dog at 0.031 mg/kg. Format: functional, Canis lupus familiaris, Cardiac ventricle.

The term IC50 denotes the point on the concentration scale where inhibition reaches its midpoint. Read a low IC50 as inhibition by little substance. A word on the ED50: it is the dose that gives a 50% effect, or the effect in half of the subjects. Consider `CCC1C(=O)NN=C1c1ccc(-n2ccnc2)cc1` (stereo not drawn), for which the Change with Canis familiaris [1] and in the assay with Canis familiaris [3] was 0% throughout. In [2], the half-inhibitory concentration (IC50) turned out to be 270 µM. For the same molecule, the ED50 with Canis familiaris [4] was more than 1 mg/kg.
The molecule `CC1CC(c2ccc(-n3ccnc3)cc2)=NNC1=O` (stereo not drawn) yielded a Dose with Canis familiaris [5] of 0.5 mg/kg.
Consider `CCC1(C)C(=O)NN=C1c1ccc(-n2ccnc2)cc1` (stereo not drawn), for which the values for the Change in the assay with Canis familiaris [1] and with Canis familiaris [3] were 17% and 6%, respectively. In [2], this molecule yielded an IC50 of 52 µM. The molecule further came in with an ED50 in the assay on Canis familiaris [4] of 0.37 mg/kg.
For `CC1(C)C(=O)NN=C1c1ccc(-n2cnc3c2CCCC3)cc1`, the Change is 10% with Canis familiaris [1] and -10% in the assay on Canis familiaris [3]. This molecule also gave an IC50 in assay [2] of 3.2 µM. The same molecule yielded an ED50 in the assay with Canis familiaris [4] of 0.2 mg/kg.
In turn, `CC1(C)CC(=O)NN=C1c1ccc(-n2ccnc2)cc1` registered a Dose with Canis familiaris [5] of 0.2 mg/kg.
`CSc1ccc(C2=NNC(=O)C2(C)C)cc1`: the values for the Change in the assay with Canis familiaris [1] and with Canis familiaris [3] were 5% and -1%, respectively. For the same molecule, the ED50 in the assay on Canis familiaris [4] came to 0.35 mg/kg.
Take `CC1(C)C(=O)NN=C1c1ccncc1`: the Change in the assay on Canis familiaris [1] was determined as 11%; in the assay with Canis familiaris [3] it was 1%. In the assay with Canis familiaris [4], this molecule returned an ED50 of 0.3 mg/kg.
With `CC1(C)CC(c2ccc(-n3ccnc3)cc2)=NNC1=O`, the Dose with Canis familiaris [5] was found to be 0.05 mg/kg.
Take `O=C1NN=C(c2ccc(-n3ccnc3)cc2)C12CCCC2`: the Change is 3.5% in the assay with Canis familiaris [1] and -0.25% in the assay with Canis familiaris [3]. The molecule further had an IC50 in assay [2] of 54 µM. Moreover, the ED50 with Canis familiaris [4] worked out at 1 mg/kg.
Turning to `CC1C(=O)NN=C1c1ccc(-n2ccnc2)cc1` (stereo not drawn), the Change in the assay with Canis familiaris [1] and in the assay on Canis familiaris [3] was 0% throughout. The IC50 in [6] came out at 140 µM. The same molecule yielded an ED50 with Canis familiaris [4] of more than 1 mg/kg.
Take `O=C1CC(c2ccc(-n3ccnc3)cc2)=NN1`: the Change in the assay on Canis familiaris [1] and with Canis familiaris [3] was 0% in each case. Besides, the IC50 in [2] turned out to be 590 µM. This molecule also showed an ED50 in the assay with Canis familiaris [4] of more than 1 mg/kg.
As to `CC1(C)C(=O)NN=C1c1ccc(-n2ccnc2)cc1`, the Change was 0.8% with Canis familiaris [7]; 4.9% in the assay on Canis familiaris [1]; 39% with Canis familiaris [8]; -0.5% in the assay with Canis familiaris [9]; -34% in the assay with Canis familiaris [10]; 78% in the assay on Canis familiaris [12]. Besides, the Change with Canis familiaris [13] was determined as 24%; in the assay on Canis familiaris [14], 10%; in the assay on Canis familiaris [15] it was 14%; with Canis familiaris [16] it was 9%; in the assay on Canis familiaris [17], 0.2%; in the assay on Canis familiaris [18], 100%. Moreover, the Change in the assay on Canis familiaris [19] is -4%; in the assay on Canis familiaris [3], -14%; in the assay with Canis familiaris [20] it was 6%; with Canis familiaris [21], 0%; with Canis familiaris [22] it was -20%; with Canis familiaris [23], -11%. The Dose with Canis familiaris [11] turned out to be 0.18 mg/kg. Besides, the 50% inhibitory concentration (IC50) in assay [2] was 22 µM. In the assay on Canis familiaris [4], this molecule had a 50% effective dose (ED50) of 0.18 mg/kg.
`CCC1(CC)C(=O)NN=C1c1ccc(-n2ccnc2)cc1`: the Change with Canis familiaris [1] and in the assay on Canis familiaris [3] was 0% in each case. The IC50 in assay [2] amounted to 120 µM. In addition, the ED50 in the assay with Canis familiaris [4] is more than 1 mg/kg.
As to `CC1CC(O)=NN=C1c1ccc(-n2ccnc2)cc1` (stereo not drawn) [CI-930], in the assay with Canis familiaris [11], the Dose worked out at 0.013 mg/kg.
As for `O=C1CCC(c2ccc(-n3ccnc3)cc2)=NN1` [IMAZODAN], the Change with Canis familiaris [7] was 6.2%; with Canis familiaris [9], -0.7%; with Canis familiaris [10] it was -22.4%; in the assay on Canis familiaris [12], 127.3%; in the assay with Canis familiaris [15], 33.8%; with Canis familiaris [16], 19.2%. Besides, the Change is reported as 5.6% in the assay with Canis familiaris [27]; 146.7% with Canis familiaris [18]; -4.1% in the assay on Canis familiaris [19]; 10.2% in the assay with Canis familiaris [20]; 0% with Canis familiaris [21]; 74.2% with Canis familiaris [29]. Also, the results for the Change in the assay on Canis familiaris [22], in the assay on Canis familiaris [23] and in the assay with Canis familiaris [30] were -13.2%, -5.3% and 37.2%, respectively. Moreover, the Increase contractility in the assay with Canis familiaris [24] is given as 40%; in the assay on Canis familiaris [26] it was 10%. For the same molecule, the Dose in the assay with Canis familiaris [25] and with Canis familiaris [28] was 0.045 mg/kg throughout.
